Where two headings read alike, the source gives them in different places. Marks after values point to notes of the source that are not given here.
How the values were obtained:
immune system = test: Immune system modulation in intact mice; format: in vivo
Geren's carcinosarcoma = test: Inhibition of tumor growth in implanted tumors; format: in vivo, mice and rats
[1] = system: farnesylation of proteins; test: Protein prenylation in myeloma Pai cells, naphthol cleavage and HPLC; format: cell-based, mouse; details: 60 μM, FIG. 8B
Procedure: (§1) The cells were collected by centrifugation at 600×g for 10 minutes and then washed twice in PBS. Control cells were grown in the absence of drug. The cells were solubilized in lysis buffer (50 mM Tris, pH 7.4, 25 mM EDTA, 0.05% Tween, 0.01 M NaCl) for 30 minutes on ice. Lysates were made by homogenization for 5 minutes at 4° C. and precipitated by centrifugation at 12,000×g for 10 minutes. The supernatant was collected. Proteins were precipitated with trichloroacetic acid and then successively washed with ethanol and ethyl ether. A selective naphthol cleavage of the bond between isoprenoides and proteins was performed as described by Epstein, W. W et al., (1991) Proc. Natl. Acad. Sci. USA 88:9668-9670. In general, 5 mg of a potassium naphthoxide and naphthol 4:1 mixture was added to approximately 10 mg of precipitated protein. After addition of 50 μl of dimethylformamide, the tubes were gassed with argon, capped and heated to 100° C. for eight to 15 hours. Reaction products were extracted with hexane and analyzed by HPLC (Waters System) using a 0.4×15 cm reverse-phase Nova-Pac C18 column. The column was eluted with 20% water in acetonitrile at a flow of 1.0 ml/minute. Napthol cleavage products were detected at 360 nm (FIG. 8) with a full-scale deflection of 0.01 A unit. […]

geranylgeranylation = test: as above; format: cell-based, mouse; details: 60 μM, FIG. 8B
Procedure: as §1

[2] = LD50, intraperitoneal injection; format: in vivo; details: 2% solution in DMSO
Text: Overall, the compounds in this family have low toxicity and are tolerated at dosages exceeding the therapeutic dosage.

[3] = system: drug resistant metastasis of Pliss' lymphosarcoma; test: Model of drug resistant metastasis of Pliss' lymphosarcoma; format: in vivo, rats; details: alone
[4] = in vivo
Procedure: Maximum tolerable doses (MTD) of arglabin and derivatives were determined by daily intraperitoneal administration to rats, guinea pigs or mice and daily intravenous administration to rabbits over a period of five to 20 days.

cancer = test: Case records of selected patients, monochemotherapy; format: in vivo, human
Text: The following are abstracts from the case records of selected patients, who received dimethylaminoarglabin hydrochloride monochemotherapy.

[5] = system: end-stage (III-IV) cancer; test: First clinical trial, 51 patients
Procedure: The patient population was 67.9% male and 32.1% female. […] Intrapleural administration was used for patients with pleurisy. Patients were given a very small dose and monitored for any signs of allergic reaction before proceeding. […] After 30-35 days, the dose was increased to 480 mg per day. […] It was estimated that the daily dose should be about 240-280 mg for typical cases. […] Additional courses of treatment were administered to some patients. Patient condition before treatment was rated on a scale of 1 to 3, where 1 was bedridden, 2 was a significant restriction on activity and 3 retained full activity. Therapeutic result was measured on a scale from 0 to 3, where 0 was no improvement, 1 was insignificant or improvement for less than a month, 2 was considerable improvement (25-50% reduction in tumor size) and 3 was sharp improvement (50-100% reduction in tumor size).

[6] = system: Sarcoma-45 resistant to sarcolysin; test: Inhibition of growth of resistant tumour strains; format: in vivo, rats; details: dose 50 mg/kg
M-1 Sarcoma = test: Inhibition of tumor growth in implanted tumors; format: in vivo, mice and rats; details: dose 30 mg/kg

CC1=CCC23OC2(C)CCC2C(CN(C)C)C(=O)OC2C13.Cl (centres unmarked) [Dimethylaminoarglabin hydrochloride]
hemagglutination titer (immune system; 100 mg/kg IP): slight decrease | hemagglutination test index (immune system; repeated IP 30 mg/kg, day 10): decreased | hemagglutination titers (immune system; repeated IP 10 and 20 mg/kg, days 5 and 10): increased | delayed-type hypersensitivity reaction (immune system; repeated IP, day 5): No effect | delayed-type hypersensitivity reaction (immune system; repeated IP, day 10): increased by day 10 | delayed-type hypersensitivity reaction (immune system; single 50 mg/kg IP): did not alter | hemagglutination titer (immune system; single 50 mg/kg IP): did not alter | Inhibition of Tumour Growth, % - Geren's carcinosarcoma (Geren's carcinosarcoma; dose 30 mg/kg): 80.1% | Inhibition of Tumour Growth, % - Geren's carcinosarcoma (Geren's carcinosarcoma; dose 50 mg/kg): 83.3* % | peak corresponding to the farnesylcysteine derivative [1]: does not appear on the chromatogram | geranylgeranyl peak (geranylgeranylation): appeared as in the control | LD50 ([2]; mice): 190 to 220 mg/kg | LD50 ([2]; rats): 280 to 310 mg/kg | duration of life in comparison with the control group [3]: 128% | maximum dosage (MTD) ([4]; guinea pig): 45 mg/kg | maximum dosage (MTD) ([4]; mouse): 30 mg/kg | maximum dosage (MTD) ([4]; rabbit): 20 mg/kg | maximum dosage (MTD) ([4]; rat): 50 mg/kg | condition of patient with brain tumor (cancer; Patient A, case number 543, after the first course): condition was stabilized | infiltration of the right breast decreased (cancer; Patient M, case number 305, breast cancer, 5 courses): 50% | outcome of liver cancer (cancer; patient, case number N2225, embryonal carcinoma of the liver, 120 mg IV daily): complete recovery | complaints at high dose ([5]; 480 mg per day): nausea and vomiting | patients with a considerable improvement ([5]; liver cancer): 55.6% | patients with a considerable improvement ([5]; lung cancer): about 64% | patients with a considerable improvement ([5]; ovarian cancer): 66% | patients with a considerable improvement ([5]; overall): approximately 30% | Note(s) - decrease in tumor ([5]; patient 47, rectal cancer III stage, suppositories): 50% decrease | hematopoiesis ([5]; patients): did not suppress hematopoiesis | toxicity ([5]; patients): little toxicity | taste reported immediately after administration ([5]; quickly dissipated): bitter taste | Inhibition of Tumour Strains Growth, % - Resistant Forms - Sarcoma-45 to sarcolysin [6]: 90.1*** % | Inhibition of Tumour Growth, % - M-1 Sarcoma (M-1 Sarcoma): 83.5** %

Reference: patent publication US6770673B1, “Therapeutic uses of arglabin in combination with other chemotherapy agents” (priority 1997, dated 2004)
